# Patent US12357665B2, “Pharmaceutical compositions and uses thereof in treating muscle atrophy” (Tzung-Yan, priority 2020, dated 2025)
# Assays:
# Type in all cases: in vivo, mouse (C57BL/6J)
# [1] = tested on: muscle tissues of aging mice fed with sucrose; assay: Sucrose-induced muscle atrophy in aging mice, topical administration: histology and muscle atrophy-associated molecules (Example 1); conditions: once per day day 17-30, ATG-125 60 mg/kg topical, 4-OHT 1 mg/kg intraperitoneal
# Experimental: (§1) Male C57BL/6J (6 and 18 months) mice were fed standard chow and water ad libitum, and housed under conditions of control temperature (26° C.) and illumination (12-hour light/dark cycle). […]
# (§2) Muscle tissues were harvested immediately from the mice after they were sacrificed, followed by flash frozen in liquid nitrogen and stored at −80° C. Proteins were extracted from muscle tissues with distilled water containing protease inhibitors, and each protein concentration was determined by protein assay kits. Protein (50 μg) was analyzed on a 10% sodium dodecyl sulfate polyacrylamide gel electrophoresis (SDS-PAGE), and transferred to a polyvinylidene difluoride (PVDF) membrane. […] The optical densities of the bands were quantified using software. […]
# [2] = tested on: mTOR/insulin signaling pathway (IGF1R, IRS1, PI3K, AKT, mTOR, S6K, 4EBP1); assay: Sucrose-induced aging mice: mTOR/insulin signaling pathway in muscle tissues, Western blot (Example 2); conditions: once per day day 17-30, ATG-125 60 mg/kg topical, 4-OHT 1 mg/kg intraperitoneal, FIGS. 4A and 4B
# Experimental: as §1, §2
# [3] = tested on: mitochondrial biogenesis mediators (SIRT1, PGC1α, NRF1, TFAM, UCP1, UCP2, UCP3); assay: Sucrose-induced aging mice: mitochondrial molecules in muscle tissues, mRNA and protein (Example 3); conditions: once per day day 17-30, ATG-125 60 mg/kg topical, 4-OHT 1 mg/kg intraperitoneal, FIGS. 5 and 6
# Experimental: as §1, §2
# [4] = tested on: muscle tissues of sucrose and MPTP-induced aging mice; assay: Sucrose and MPTP-induced muscle atrophy in aging mice, oral administration: histology, atrogin-1 and klotho mRNA (Example 4); conditions: once per day day 17-30, ATG-125 60 mg/kg oral, selegiline 1 mg/kg intraperitoneal, FIG. 7
# Experimental: as §1
# Total RNA was isolated from 0.2 g of muscle tissues using RNA extraction kit. For qRT-PCR (real-time reverse transcription-PCR), equal amounts of RNA were retro-transcribed to cDNA using cDNA reverse transcription kit according to the manufacturer's instruction. atrogin-1, klotho, mitochondrial transcription factor A (TFAM), SIRT1, PGC1α, nuclear respiratory factor 1 (NRF1), UCP1, and UCP2 mRNA expressions were evaluated using the SYBR® Green PCR master mix. Relative expression was calculated using the ΔΔCt method with normalization to constitutive genes. […]
# [5] = tested on: mitochondrial biogenesis mediators (SIRT1, PGC1α, NRF1, TFAM, UCP1, UCP2); assay: Sucrose and MPTP-induced aging mice: mitochondrial molecules mRNA in muscle tissues (Example 5); conditions: once per day day 17-30, ATG-125 60 mg/kg oral, selegiline 1 mg/kg intraperitoneal, FIG. 8
# Experimental: as §1
# Total RNA was isolated from 0.2 g of muscle tissues using RNA extraction kit. For qRT-PCR (real-time reverse transcription-PCR), equal amounts of RNA were retro-transcribed to cDNA using cDNA reverse transcription kit according to the manufacturer's instruction. atrogin-1, klotho, mitochondrial transcription factor A (TFAM), SIRT1, PGC1α, nuclear respiratory factor 1 (NRF1), UCP1, and UCP2 mRNA expressions were evaluated using the SYBR® Green PCR master mix. Relative expression was calculated using the ΔΔCt method with normalization to constitutive genes.
# Mitochondria play an essential role in energy production, redox homeostasis, and the regulation of cell death pathways. […] Thus, whether ATG-125 solution improves the mitochondrial function in the animal having muscle atrophy was evaluated in this example, and the results were respectively depicted in FIG. 8.
Compound,"adverse effect of sucrose on muscle tissues (protein levels of pAMPK, FOXO3a, MuRF1, lipofuscin; mRNA levels of Atrogin-1 and Klotho) ([1]; FIGS. 1 to 3)","levels of adipocytes and degenerated myofibers in muscles ([1]; H&E, FIG. 1)","phosphorylated levels (activations) of mTOR/insulin signaling molecules (pIGF1R, pIRS1, pPI3K, pAKT, pmTOR, pS6K, p4EBP1) [2]","expression levels of mitochondrial biogenesis mediators (mRNA SIRT1, PGC1α, NRF1, TFAM, UCP1, UCP2; protein SIRT1, PGC1α, UCP1, UCP2, UCP3) in muscle tissues [3]",adverse effect of sucrose and MPTP on muscle tissues (mRNA levels of Atrogin-1 and Klotho) [4],levels of degenerated myofibers in muscles ([4]; H&E),"expression levels of mitochondrial biogenesis mediators (mRNA SIRT1, PGC1α, NRF1, TFAM, UCP1, UCP2) in muscle tissues [5]"
4-hydroxytamoxifen [4-OHT],significantly reversed,decreased,enhanced,increased,,,
C#CCN(C)[C@H](C)Cc1ccccc1 [selegiline],,,,,significantly reversed,decreased,increased
